Values of other authors in article PMC9851200, “Multiparameter phenotypic screening for endogenous TFEB and TFE3 translocation identifies novel chemical series modulating lysosome function” (Autophagy, 2022).

Key:
Design in all cases: method as in original PKIS2 published data
[1] = target: kinases (KINOMEscan panel) (Homo sapiens, UniProt P06239); details: LCK; Published KINOMEscan; ref original PKIS2 published data; cited from earlier work
[2] = target: kinases (KINOMEscan panel) (Homo sapiens, UniProt Q15569); details: TESK1; Published KINOMEscan; ref original PKIS2 published data; cited from earlier work
[3] = target: T1, kinases (KINOMEscan panel) (Homo sapiens, UniProt Q59H18); details: kinase TNNI3K; Published KINOMEscan; ref original PKIS2 published data; cited from earlier work
T1 sequence (Q59H18 1-835): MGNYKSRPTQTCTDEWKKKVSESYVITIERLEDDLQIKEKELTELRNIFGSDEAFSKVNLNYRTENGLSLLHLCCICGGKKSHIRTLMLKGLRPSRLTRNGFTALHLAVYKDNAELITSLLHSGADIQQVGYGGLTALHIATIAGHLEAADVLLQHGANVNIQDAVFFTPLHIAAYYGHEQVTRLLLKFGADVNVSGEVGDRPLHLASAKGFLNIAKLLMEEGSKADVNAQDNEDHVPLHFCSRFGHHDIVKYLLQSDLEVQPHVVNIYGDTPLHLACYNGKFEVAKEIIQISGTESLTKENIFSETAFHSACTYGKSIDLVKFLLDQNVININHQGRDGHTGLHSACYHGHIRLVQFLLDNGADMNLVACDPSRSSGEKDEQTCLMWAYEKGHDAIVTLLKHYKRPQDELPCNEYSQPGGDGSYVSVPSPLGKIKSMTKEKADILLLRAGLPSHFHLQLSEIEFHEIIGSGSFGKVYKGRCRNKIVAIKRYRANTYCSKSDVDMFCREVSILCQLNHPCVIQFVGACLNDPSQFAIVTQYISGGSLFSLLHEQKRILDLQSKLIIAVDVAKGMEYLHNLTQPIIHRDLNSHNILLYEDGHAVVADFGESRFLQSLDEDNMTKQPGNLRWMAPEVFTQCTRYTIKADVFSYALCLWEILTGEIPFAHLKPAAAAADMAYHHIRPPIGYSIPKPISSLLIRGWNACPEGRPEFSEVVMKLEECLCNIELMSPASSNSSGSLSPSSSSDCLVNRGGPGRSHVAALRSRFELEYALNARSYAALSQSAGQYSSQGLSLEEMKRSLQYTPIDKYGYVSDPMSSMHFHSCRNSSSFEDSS

[4] = target: T2, kinases (KINOMEscan panel) (Homo sapiens, UniProt Q92772); details: CDKL2; Published KINOMEscan; ref original PKIS2 published data; cited from earlier work
T2 sequence (Q92772 1-493): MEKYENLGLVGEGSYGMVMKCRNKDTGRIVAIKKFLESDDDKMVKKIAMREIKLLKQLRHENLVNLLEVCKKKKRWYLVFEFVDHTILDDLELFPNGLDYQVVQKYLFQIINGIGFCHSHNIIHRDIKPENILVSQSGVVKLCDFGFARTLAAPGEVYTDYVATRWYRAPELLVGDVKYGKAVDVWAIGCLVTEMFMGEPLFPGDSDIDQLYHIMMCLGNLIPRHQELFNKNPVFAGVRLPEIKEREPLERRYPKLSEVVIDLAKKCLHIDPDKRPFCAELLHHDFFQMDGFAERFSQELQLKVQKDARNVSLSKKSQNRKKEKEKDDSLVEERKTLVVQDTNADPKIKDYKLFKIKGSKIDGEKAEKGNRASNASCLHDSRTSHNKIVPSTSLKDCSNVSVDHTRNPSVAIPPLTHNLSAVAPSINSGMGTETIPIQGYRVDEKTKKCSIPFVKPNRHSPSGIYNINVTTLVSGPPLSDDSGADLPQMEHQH

[5] = target: T3, kinases (KINOMEscan panel) (Homo sapiens, UniProt Q9UF33); details: kinase EPHA6; Published KINOMEscan; ref original PKIS2 published data; cited from earlier work
T3 sequence (Q9UF33 23-1036): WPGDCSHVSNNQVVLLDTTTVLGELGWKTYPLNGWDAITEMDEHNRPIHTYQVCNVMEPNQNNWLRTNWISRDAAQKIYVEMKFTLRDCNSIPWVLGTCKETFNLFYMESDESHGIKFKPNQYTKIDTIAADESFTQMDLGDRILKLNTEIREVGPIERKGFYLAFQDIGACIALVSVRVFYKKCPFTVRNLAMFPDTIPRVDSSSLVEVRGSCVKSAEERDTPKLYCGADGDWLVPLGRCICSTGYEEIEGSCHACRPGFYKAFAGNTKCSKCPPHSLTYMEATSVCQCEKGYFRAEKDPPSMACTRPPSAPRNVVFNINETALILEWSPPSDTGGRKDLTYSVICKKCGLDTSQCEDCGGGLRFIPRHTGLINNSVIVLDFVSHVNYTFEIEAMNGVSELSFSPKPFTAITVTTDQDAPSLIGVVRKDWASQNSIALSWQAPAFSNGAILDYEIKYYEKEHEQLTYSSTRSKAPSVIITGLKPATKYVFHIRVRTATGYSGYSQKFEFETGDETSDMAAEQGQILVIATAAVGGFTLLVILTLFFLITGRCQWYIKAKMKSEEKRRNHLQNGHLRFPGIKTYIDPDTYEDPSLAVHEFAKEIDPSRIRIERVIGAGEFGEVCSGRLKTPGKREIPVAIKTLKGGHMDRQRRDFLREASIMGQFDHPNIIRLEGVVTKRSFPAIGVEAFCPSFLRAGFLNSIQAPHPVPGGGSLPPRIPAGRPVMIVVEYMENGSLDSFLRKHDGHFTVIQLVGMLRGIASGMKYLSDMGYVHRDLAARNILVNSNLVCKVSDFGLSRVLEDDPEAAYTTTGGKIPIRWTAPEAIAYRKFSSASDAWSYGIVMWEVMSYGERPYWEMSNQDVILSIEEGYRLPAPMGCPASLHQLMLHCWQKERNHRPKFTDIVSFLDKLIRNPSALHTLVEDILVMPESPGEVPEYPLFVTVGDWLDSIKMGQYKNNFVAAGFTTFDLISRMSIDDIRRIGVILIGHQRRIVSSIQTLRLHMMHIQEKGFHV

kinases (KINOMEscan panel) (Homo sapiens, UniProt P06239), sequence (P06239 whole entry): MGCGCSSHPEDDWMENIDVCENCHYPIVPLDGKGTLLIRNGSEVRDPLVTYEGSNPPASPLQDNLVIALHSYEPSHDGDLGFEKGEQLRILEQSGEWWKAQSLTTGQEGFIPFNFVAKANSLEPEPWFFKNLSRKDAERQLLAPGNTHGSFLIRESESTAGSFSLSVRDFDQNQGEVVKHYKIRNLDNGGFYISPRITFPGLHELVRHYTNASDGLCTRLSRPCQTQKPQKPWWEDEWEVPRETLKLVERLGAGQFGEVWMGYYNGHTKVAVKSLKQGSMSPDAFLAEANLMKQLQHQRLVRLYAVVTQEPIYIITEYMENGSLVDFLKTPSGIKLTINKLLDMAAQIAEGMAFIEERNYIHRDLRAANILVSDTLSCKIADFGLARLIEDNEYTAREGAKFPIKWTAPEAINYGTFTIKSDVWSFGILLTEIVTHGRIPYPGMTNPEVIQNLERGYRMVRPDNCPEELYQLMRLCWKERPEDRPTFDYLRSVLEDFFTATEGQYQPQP
kinases (KINOMEscan panel) (Homo sapiens, UniProt Q15569), sequence (Q15569 whole entry): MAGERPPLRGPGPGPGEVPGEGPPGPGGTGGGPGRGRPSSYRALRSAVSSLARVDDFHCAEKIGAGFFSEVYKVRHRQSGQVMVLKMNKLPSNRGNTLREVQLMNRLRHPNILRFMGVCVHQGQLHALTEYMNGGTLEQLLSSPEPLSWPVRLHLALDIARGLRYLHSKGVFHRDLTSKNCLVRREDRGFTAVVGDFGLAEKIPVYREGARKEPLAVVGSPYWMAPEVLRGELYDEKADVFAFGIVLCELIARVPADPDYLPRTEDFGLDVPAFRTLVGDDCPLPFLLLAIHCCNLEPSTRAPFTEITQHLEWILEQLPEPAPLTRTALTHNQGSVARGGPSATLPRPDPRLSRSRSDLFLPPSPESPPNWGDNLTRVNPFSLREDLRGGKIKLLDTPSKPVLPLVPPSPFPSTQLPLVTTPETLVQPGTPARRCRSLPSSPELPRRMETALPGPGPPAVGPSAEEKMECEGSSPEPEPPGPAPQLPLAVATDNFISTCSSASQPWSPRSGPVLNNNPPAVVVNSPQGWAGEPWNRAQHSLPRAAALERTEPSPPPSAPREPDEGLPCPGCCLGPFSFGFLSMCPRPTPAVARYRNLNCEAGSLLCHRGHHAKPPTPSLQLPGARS

Cc1cccc(-c2nc(Nc3ccncc3)c3ccccc3n2)n1 [NK215]
KINOMEscan LCK [1]: 9 | KINOMEscan TESK1 [2]: 14 | KINOMEscan TNNI3K [3]: 20 | KINOMEscan CDKL2 [4]: 10 | KINOMEscan EPHA6 [5]: 0
